Assay results reported in patent US9097693B2, “Simple analysis method of drugs” (priority 2005, dated 2015).
Read-outs that look alike come from different tables or passages of the source.

Conditions: for nicotine content in hair: smoker, three 6 cm hairs (about 0.9 mg)
Experimental: Three 60 mm hairs (about 0.9 mg) were put in a stainless injection needle (inner diameter of 0.5 mm, outer diameter of 0.7 mm, the tip conical part length of 2 mm, the container part length of 80 mm, and one aperture of 0.4 mm in diameter in the lateral side of the end of the container). A syringe was fixed to the needle and methanol, dichloromethane and methanol each one ml were run in this order through the needle to wash the hairs.
Then, the needle was inserted into an injector (at 300° C.) of a gas chromatograph (Agilent, HP-6890) and held for 15 seconds. Then, dichloromethane (25 μL) was injected for desorption and a carrier gas was run. The chromatography was conducted under the following conditions. • Column diameter: 0.25 mm • Column length: 25 m • Column stationary phase: dimethylpolysiloxane (HR-1) • Column temperature: 50° C. to 300° C. (temperature rising: 5° C./min) • Carrier gas: helium • Carrier gas flow: 0.9 ml/min • Split ratio: 25:1 • Detector: MS (Agilent, HP-5972)
Three 6 cm hairs (about 0.9 mg) were used for the analysis.

## CN1CCCC1c1cccnc1 (stereo not shown) [nicotine]
Hair of smoker, three 60 mm hairs (about 0.9 mg), GC-MS
  nicotine detection in hair: clearly detected
10 cigarettes per day, tobacco brand B (nominal nicotine 0.7 mg)
  nicotine content in hair: 11.5 ng/mg
15 cigarettes per day, tobacco brand E (nominal nicotine 0.8 mg)
  nicotine content in hair: 8.2 ng/mg
15 cigarettes per day, tobacco brand F (nominal nicotine 0.1 mg)
  nicotine content in hair: 13.0 ng/mg
20 cigarettes per day, tobacco brand A (nominal nicotine 1.2 mg)
  nicotine content in hair: 12.1 ng/mg
20 cigarettes per day, tobacco brand D (nominal nicotine 0.1 mg)
  nicotine content in hair: 30.5 ng/mg
30 cigarettes per day, tobacco brand C (nominal nicotine 0.4 mg)
  nicotine content in hair: 55.3 ng/mg
